What was measured:
Format in all cases: in vivo
[1] = tested on: Spodoptera eridania, 3rd instar larvae, southern armyworm; experiment: Southern armyworm 7-day residual test; conditions: R designates Residual: 7-day residual foliage, concentration not given; for ARMYWORM Day 3 R: rating at 3 days; for ARMYWORM Day 5 R: rating at 5 days
Method in brief: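 Compound was dissolved in 35% aqueous acetone (10,000 ppm stock) and diluted with water before treating lima bean leaves. The leaves were aged 7 days under high-intensity greenhouse lamps (14 h day). Third-instar Spodoptera eridania larvae were then assayed on the foliage and rated on a scale.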

[2] = tested on: Diabrotic undecimpunctata howardi, 3rd instar southern corn rootworm; experiment: Southern corn rootworm soil test; set-up: key: 0: no effect; 10-25% kill; 26-35% kill; 36-45% kill; 46-55% kill; 56-65% kill; 66-75% kill; 76-85% kill; 86-99% kill; 9: 100% kill; conditions: mortality rating after 6 days
Method in brief: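 Compound applied in acetone to talc at 1.25 and 0.25 mg active ingredient per jar (about 50 and 10 kg/ha), dried, then mixed with millet seed and moist soil. Ten 3rd instar larvae added per jar; mortality counted at 6 days, with missing larvae scored dead. Results rated on a scale.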

[3] = tested on: Spodoptera eridania, 3rd instar larvae, southern armyworm; experiment: Southern armyworm 3rd instar test, dipped limabean leaf; set-up: key: 0: no effect; 10-25% kill; 26-35% kill; 36-45% kill; 46-55% kill; 56-65% kill; 66-75% kill; 76-85% kill; 86-99% kill; 9: 100% kill; conditions: for ARMYWORM Day 3: rating at 3 days; for ARMYWORM Day 5: rating at 5 days
Method in brief: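 Compound dissolved in 35% acetone/water at 10,000 ppm stock, diluted with water. Sieva limabean leaves dipped 3 s, dried, and exposed to ten 3rd instar larvae on damp filter paper. Mortality, reduced feeding and molting interference scored at 3 and 5 days on a rating scale.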

[4] = tested on: Spodoptera eridania, 3rd instar larvae, southern armyworm; experiment: Southern armyworm systemic uptake (stem systemic) test; set-up: key: 0: no effect; 10-25% kill; 26-35% kill; 36-45% kill; 46-55% kill; 56-65% kill; 66-75% kill; 76-85% kill; 86-99% kill; 9: 100% kill; conditions: cut stem in emulsion 3 days
[5] = tested on: Tetranychus urticae (OP-resistant strain), 2-spotted spider mite; experiment: 2-spotted spider mite test, dipped infested limabean plants; set-up: key: 0: no effect; 10-25% kill; 26-35% kill; 36-45% kill; 46-55% kill; 56-65% kill; 66-75% kill; 76-85% kill; 86-99% kill; 9: 100% kill
Method in brief: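 Mite-infested Sieva limabean plants (OP-resistant strain, ~100 mites per leaf, transferred ~2 h earlier) dipped 3 s with agitation in compound solution (10,000 ppm stock in 35% acetone/water, diluted with water). Mortality counted at 2 days; egg and nymph mortality assessed at 5 days; rated on a scale.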

[6] = tested on: Heliothis virescens, egg, tobacco budworm; experiment: Tobacco budworm egg test, dipped cotton leaf and eggs; set-up: key: 0: no effect; 10-25% kill; 26-35% kill; 36-45% kill; 46-55% kill; 56-65% kill; 66-75% kill; 76-85% kill; 86-99% kill; 9: 100% kill; conditions: mortality rating after 3 days
Method in brief: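 Compound dissolved at 10,000 ppm in 35% aqueous acetone, diluted with water. A cotton leaf and a cheesecloth square with roughly 50-100 eggs aged 6-30 h are each dipped for about 3 s, then combined and kept humid. Mortality counted after 3 days and rated on a scale.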

[7] = 10 ppm, adult mites, rating scale 0-9
[8] = 10 ppm, mite eggs, rating scale 0-9
[9] = 10 ppm, mite nymphs, rating scale 0-9
[10] = 100 ppm, adult mites, rating scale 0-9
[11] = 100 ppm, mite eggs, rating scale 0-9
[12] = 300 ppm, adult mites, rating scale 0-9
[13] = 300 ppm, mite eggs, rating scale 0-9
[14] = 300 ppm, mite nymphs, rating scale 0-9
[15] = 10 ppm, mortality rating after 2 days
[16] = 100 ppm, mortality rating after 2 days
[17] = 300 ppm, mortality rating after 2 days

SMILES | ARMYWORM Day 3 R [1] | ARMYWORM Day 5 R [1] | SOUTHERN CORN ROOTWORM ([2]; 50 (ppm as headed)) | ARMYWORM Day 3 ([3]; 10 ppm) | ARMYWORM Day 5 ([3]; 10 ppm) | ARMYWORM Day 3 ([3]; 100 ppm) | ARMYWORM Day 5 ([3]; 100 ppm) | ARMYWORM Day 3 ([3]; 1000 ppm) | ARMYWORM Day 5 ([3]; 1000 ppm) | ARMYWORM Stem Sys [4] | OP-RESISTANT MITES Adult [5, 12] | OP-RESISTANT MITES Egg [5, 13] | OP-RESISTANT MITES Nymph [5, 14] | TOBACCO BUDWORM Egg ([6]; 1000 ppm) | OP-RESISTANT MITES Adult [5, 15] | OP-RESISTANT MITES Egg ([5]; 10 ppm, rating after 5 days) | OP-RESISTANT MITES Nymph ([5]; 10 ppm, rating after 5 days) | OP-RESISTANT MITES Egg ([5]; 100 ppm, rating after 5 days) | OP-RESISTANT MITES Egg ([5]; 300 ppm, rating after 5 days) | TOBACCO BUDWORM Egg ([6]; 100 ppm) | also measured
N=C(N)SCn1c(-c2ccc(Cl)c(Cl)c2)c(Br)c(C(F)(F)F)c1C(F)(F)F [Example 18] | 9 (100% kill) | 9 (100% kill) | 0 | 0 | 0 | 9 (100% kill) | 9 (100% kill) | 9 (100% kill) | 9 (100% kill) | 0 | 9 (100% kill) | 0 | 0 | 0 |  |  |  |  |  |  | OP-RESISTANT MITES Adult [5, 7]: 0; OP-RESISTANT MITES Egg [5, 8]: 0; OP-RESISTANT MITES Nymph [5, 9]: 0; OP-RESISTANT MITES Adult [5, 10]: 9 (100% kill); OP-RESISTANT MITES Egg [5, 11]: 0; OP-RESISTANT MITES Nymph ([5]; 100 ppm, mite nymphs, rating scale 0-9): 0
N#Cc1c(Cl)c(C(F)(F)F)n(CSC2=NCCN2)c1-c1ccc(Cl)cc1 [Example 4] | 9 (100% kill) | 9 (100% kill) | 0 | 9 (100% kill) | 9 (100% kill) | 9 (100% kill) | 9 (100% kill) | 9 (100% kill) | 9 (100% kill) | 0 |  |  |  | 9 (100% kill) | 0 | 0 | 0 | 0 | 9 (100% kill) | 9 (100% kill) | OP-RESISTANT MITES Nymph ([5]; 100 ppm, rating after 5 days): 0
CCOC(=S)SCn1c(-c2ccc(Cl)cc2)c(C#N)c(Br)c1C(F)(F)F [Example 29] | 9 (100% kill) | 9 (100% kill) | 9 (100% kill) | 9 (100% kill) | 9 (100% kill) | 9 (100% kill) | 9 (100% kill) | 9 (100% kill) | 9 (100% kill) | 0 | 9 (100% kill) | 0 | 0 | 4 (46-55% kill) |  |  |  |  |  | 0 | OP-RESISTANT MITES Adult [5, 7]: 9 (100% kill); OP-RESISTANT MITES Egg [5, 8]: 9 (100% kill); OP-RESISTANT MITES Adult [5, 10]: 9 (100% kill); OP-RESISTANT MITES Egg [5, 11]: 9 (100% kill)
CCOC(=S)SCn1c(-c2ccc(Cl)c(Cl)c2)c(Br)c(C(F)(F)F)c1C(F)(F)F [Example 35] | 9 (100% kill) | 9 (100% kill) | 0 | 9 (100% kill) | 9 (100% kill) | 9 (100% kill) | 9 (100% kill) | 9 (100% kill) | 9 (100% kill) | 0 |  | 0 | 0 | 0 |  |  |  |  |  |  | OP-RESISTANT MITES Nymph [5, 9]: 0
CN(C)C(=S)SCn1c(-c2ccc(Cl)cc2)c(C#N)c(Cl)c1C(F)(F)F [Example 21] | 9 (100% kill) | 9 (100% kill) | 9 (100% kill) | 9 (100% kill) | 9 (100% kill) | 9 (100% kill) | 9 (100% kill) | 9 (100% kill) | 9 (100% kill) | 0 |  |  |  | 0 | 9 (100% kill) | 0 | 0 | 8 (86-99% kill) | 0 | 0 | SOUTHERN CORN ROOTWORM ([2]; 1 (ppm as headed)): 0; SOUTHERN CORN ROOTWORM ([2]; 10 (ppm as headed)): 0; OP-RESISTANT MITES Adult [5, 16]: 9 (100% kill); OP-RESISTANT MITES Nymph ([5]; 100 ppm, rating after 5 days): 0; OP-RESISTANT MITES Adult [5, 17]: 9 (100% kill); OP-RESISTANT MITES Nymph ([5]; 300 ppm, rating after 5 days): 9 (100% kill)
CN(C)C(=S)SCn1c(-c2ccc(Cl)cc2)c(C#N)c(Br)c1C(F)(F)F [Example 24] | 9 (100% kill) | 9 (100% kill) | 9 (100% kill) | 9 (100% kill) | 9 (100% kill) | 9 (100% kill) | 9 (100% kill) | 9 (100% kill) | 9 (100% kill) | 0 |  |  |  | 0 | 9 (100% kill) | 0 | 0 | 9 (100% kill) | 9 (100% kill) |  | SOUTHERN CORN ROOTWORM ([2]; 1 (ppm as headed)): 0; SOUTHERN CORN ROOTWORM ([2]; 10 (ppm as headed)): 0; OP-RESISTANT MITES Adult [5, 16]: 9 (100% kill); OP-RESISTANT MITES Adult [5, 17]: 0
CC(C)OC(=S)SCn1c(-c2ccc(Cl)cc2)c(C#N)c(Br)c1C(F)(F)F [Example 30] | 9 (100% kill) | 9 (100% kill) | 9 (100% kill) | 9 (100% kill) | 9 (100% kill) | 9 (100% kill) | 9 (100% kill) | 9 (100% kill) | 9 (100% kill) | 0 | 9 (100% kill) | 0 | 0 | 0 |  |  |  |  |  | 0 | OP-RESISTANT MITES Adult [5, 7]: 9 (100% kill); OP-RESISTANT MITES Egg [5, 8]: 9 (100% kill); OP-RESISTANT MITES Adult [5, 10]: 9 (100% kill); OP-RESISTANT MITES Egg [5, 11]: 9 (100% kill)
N#Cc1c(Br)c(C(F)(F)F)n(CSC2=NCCN2)c1-c1ccc(Cl)cc1 [Example 7] | 9 (100% kill) | 9 (100% kill) | 9 (100% kill) | 9 (100% kill) | 9 (100% kill) | 9 (100% kill) | 9 (100% kill) | 9 (100% kill) | 9 (100% kill) | 0 |  |  |  | 9 (100% kill) | 9 (100% kill) | 0 | 0 | 9 (100% kill) | 0 | 0 | SOUTHERN CORN ROOTWORM ([2]; 1 (ppm as headed)): 0; SOUTHERN CORN ROOTWORM ([2]; 10 (ppm as headed)): 0; OP-RESISTANT MITES Adult [5, 16]: 9 (100% kill); OP-RESISTANT MITES Adult [5, 17]: 9 (100% kill); OP-RESISTANT MITES Nymph ([5]; 300 ppm, rating after 5 days): 0; TOBACCO BUDWORM Egg ([6]; 300 ppm): 8 (86-99% kill)
CN=C(NC)SCn1c(Cl)c(C#N)c(Cl)c1-c1ccc(Cl)c(Cl)c1 [Example 19] | 9 (100% kill) | 9 (100% kill) | 0 | 0 | 0 | 9 (100% kill) | 9 (100% kill) | 9 (100% kill) | 9 (100% kill) | 0 | 5 (56-65% kill) | 0 | 0 | 0 |  |  |  |  |  |  | 
